Test results as given in patent publication US9643917B2, “Water-soluble propofol derivatives and uses thereof” (JIANGSU NHWALUOKANG PHARMCEUTICAL RESEARCH AND DEVELOPMENT …, priority 2014, dated 2017).
Where two headings read alike, the source gives them in different places. Marks after values point to notes of the source that are not given here.

Legend:
[1] = rat plasma, 37° C., HPLC
Method: (§1) 0.1 ml samples were taken from each of the solutions, added respectively to 1 ml of blood plasma of rabbit (taken from New Zealand white rabbits, treated according to conventional methods, anticoagulated with heparin) or 1 ml of blood plasma of rat (taken from live SD rats, processed according to conventional methods, anti coagulated with heparin), homogeneously mixed, and placed in a thermostatic water bath at 37° C. for incubation with time being recorded. Samples were taken at different time points after the experiment began, and 2 ml of acetonitrile was immediately added. The samples were shaken and centrifuged for 5 min (15,000 rpm), and the supernatant was then taken for HPLC analysis.

[2] = rabbit plasma, 37° C., HPLC
Method: as §1

Kunming mice = details: tail intravenous injection, n = 5
Method: Rats and mice were administered with samples having a fixed concentration of drugs, while the volume of administration altered according to actual situation. The volume of administration to rabbits was 1 mL/kg body weight.
The periods during which the righting reflex of mice disappeared (latent period) and recovered (persistent period) were recorded.

KM mice = details: for TI Mouse: TI=LD50/ED50, mouse; for Mouse ED50: disappearance of righting reflex, caudal vein injection
Method: (§2) Test samples for the experiment on rabbit were formulated to have corresponding concentrations based on the results from a preliminary test. […] Rats and mice were administered with samples having a fixed concentration of drugs, while the volume of administration altered according to actual situation. The volume of administration to rabbits was 1 mL/kg body weight.
(§3) ED50 and LD50 values concerning anesthesia were determined using a sequential method. Healthy KM mice (male), SD rats (male) and New Zealand White rabbits were used for test. […] For rabbits, the compounds were administered by injection at a constant rate via ear vein for 30 seconds. Before the test, a preliminary test was conducted to determine an approximate dosage (volume of administration) that leads to anesthetization (or death) of animals, which was set as the middle dosage in the formal test. […] The disappearance of righting reflex or death was used as indicators of pharmacological efficacy or toxicity, respectively. The formal test began with the administration of the middle dosage. If animals were anesthetized, a lower dosage was administered; if animals were not anesthetized, a higher dosage was administered, until the cycle was repeated for 3-4 times. LD50 and ED50 were calculated by a sequential method aot425 software. TI was calculated according to the following equation: TI=LD50/ED50.

SD rats = details: for TI Rat: TI=LD50/ED50, rat; for Rat ED50: disappearance of righting reflex, caudal vein injection
Method: as §2, §3

[3] = test system: New Zealand White rabbits; details: TI=LD50/ED50, rabbit
Method: as §2, §3

in vivo [4] = details: male, KM, mouse, intravenous, caudal vein injection, confirmation test
Method: as §2, §3

in vivo [5] = details: male, SD, rat, intravenous, caudal vein injection
Method: as §2, §3

[6] = dosage 2 * ED50, 3 mg/ml solution
[7] = dosage 2 * ED50, 6 mg/ml solution
[8] = 3 mg/ml solution, confirmation test
[9] = 3 mg/ml solution, first test (*)
[10] = 6 mg/ml solution, confirmation test
[11] = 6 mg/ml solution, first test (*)

Row | Structure (SMILES) | Dissociation percent 5 s [1] [%] | Dissociation percent 15 s [2] [%] | Dissociation percent 30 s [2] [%] | Dissociation percent 15 s [1] [%] | further results
1 | CC(C)c1cccc(C(C)C)c1OC(=O)C(CCC(=O)[O-])C(F)(F)F.[Li+] [F3, propofol 4-carboxyl-2-(R)-2-trifluoromethyl valerate lithium salt] | 47.4 | 28.4 | 47.9 |  | 
2 | CC(C)c1cccc(C(C)C)c1OC(=O)C(F)CCOP(=O)([O-])[O-].[K+].[K+] (racemic) [G1, {1-[4-(2,6-diisopropylphenoxy)-4-oxo-3-(R,S)-3-fluoro-1-butyl]} phosphate monoester dipotassium salt] | 54.1 | 43.7 | 68.7 | 67.4 | Dissociation percent 30 s [1]: 86.9%
3 | CC(C)c1cccc(C(C)C)c1OC(=O)[C@@H](F)CCOP(=O)([O-])[O-].[Na+].[Na+] [G2, {1-[4-(2,6-diisopropylphenoxy)-4-oxo-3-(S)-3-fluoro-1-butyl]} phosphate monoester disodium salt] | 48.5 | 37.2 | 54.3 | 69.7 | Latent Period (Kunming mice; [6]): 16.3 ± 0.8 s; Persistent period (Kunming mice; [6]): 383.6 ± 242.1 s; Latent Period (Kunming mice; [7]): 15.7 ± 2.3 s; Persistent period (Kunming mice; [7]): 571 ± 173 s; TI Mouse (KM mice; [8]): 3.0; TI Mouse (KM mice; [9]): 2.8*; TI Mouse (KM mice; [10]): 2.3; TI Mouse (KM mice; [11]): 1.9*; Mouse ED50 (KM mice; [8]): 19.8 mg/kg; Mouse ED50 (KM mice; [9]): 23.7 mg/kg; Mouse ED50 (KM mice; [10]): 22.8 mg/kg; Mouse ED50 (KM mice; [11]): 25.6 mg/kg; TI Rat (SD rats; 3 mg/ml solution): 3.3; TI Rat (SD rats; 6 mg/ml solution): 2.8; Rat ED50 (SD rats; 6 mg/ml solution): 21.1 mg/kg
4 | CC(C)c1cccc(C(C)C)c1OC(=O)C(CF)CCCCCCC(=O)[O-].CC(C)c1cccc(C(C)C)c1OC(=O)C(CF)CCCCCCC(=O)[O-].CC(C)c1cccc(C(C)C)c1OC(=O)C(CF)CCCCCCC(=O)[O-].[Al+3] (racemic) [F6, tri[propofol 8-carboxyl-2-(R,S)-monofluoromethylpelargonate] aluminum salt] | 34.2 | 37.1 | 58.3 | 55.7 | 
5 | CC(C)c1cccc(C(C)C)c1OC(=O)C(CF)CP(=O)([O-])[O-].CC(C)c1cccc(C(C)C)c1OC(=O)C(CF)CP(=O)([O-])[O-].CC(C)c1cccc(C(C)C)c1OC(=O)C(CF)CP(=O)([O-])[O-].[Al+3].[Al+3] (racemic) [G6, tri[propofol 3-phosphoryl-2-(R,S)-2-monofluoromethylpropionate] dialuminum salt] | 22.1 | 27.1 | 44.3 | 39.7 | 
6 | CC(C)c1cccc(C(C)C)c1OC(=O)C(F)C(=O)[O-].[Na+] [F8, Propofol-2-(R)-fluoropropionate monoester sodium salt] | 55.5 | 41.2 | 70.4 | 69.3 | Dissociation percent 30 s [1]: 83.3%
7 | CC(C)c1cccc(C(C)C)c1OC(=O)C(F)CCCC(=O)[O-].CC(C)c1cccc(C(C)C)c1OC(=O)C(F)CCCC(=O)[O-].[Zn+2] [F5, di[propofol 5-carboxyl-2-(S)-fluorohexanoate] zinc salt] | 63.2 | 34.9 | 58.8 | 80.3 | 
8 | CCN(C)CCC(F)C(=O)Oc1c(C(C)C)cccc1C(C)C.Cl (racemic) [E4, propofol 4-N-methyl-N-ethylamino-2-(R,S)-2-fluorobutyrate hydrochloride] | 70.2 | 58.3 | 70.4 |  | 
9 | CC(C)c1cccc(C(C)C)c1OC(=O)[C@@H](F)CCCN(C)Cc1ccccc1.Cl [E5, propofol 5-N-methyl-N-benzylamino-2-(S)-2-fluorovalerate hydrochloride] | 72.3 | 48.4 | 69.7 | 97.3 | 
10 | CC(C)c1cccc(C(C)C)c1OC(=O)C(F)CCCCCC(=O)[O-].CC(C)c1cccc(C(C)C)c1OC(=O)C(F)CCCCCC(=O)[O-].[Ca+2] (racemic) [F4, di[propofol 7-carboxyl-2-(R,S)-fluorocaprylate] calcium salt] | 63.8 | 48.3 | 61.7 |  | 
11 | CC(C)c1cccc(C(C)C)c1OC(=O)C(F)CC(=O)[O-].[Na+] [F7, Propofol-2-(R)-fluorobutyrate monoester sodium salt] | 58.8 | 46.3 | 72.8 | 71.3 | Latent Period (Kunming mice; [6]): 20.2 ± 0.6 s; Persistent period (Kunming mice; [6]): 335.5 ± 218.1 s; Latent Period (Kunming mice; [7]): 16.2 ± 2.2 s; Persistent period (Kunming mice; [7]): 517 ± 231 s; TI Mouse (KM mice; [8]): 2.6; TI Mouse (KM mice; [9]): 2.8*; TI Mouse (KM mice; [10]): 3.1; TI Mouse (KM mice; [11]): 2.4*; Mouse ED50 (KM mice; [8]): 19.2 mg/kg; Mouse ED50 (KM mice; [9]): 21.4 mg/kg; Mouse ED50 (KM mice; [10]): 18.1 mg/kg; Mouse ED50 (KM mice; [11]): 20.7 mg/kg; TI Rat (SD rats; 3 mg/ml solution): 3.0; TI Rat (SD rats; 6 mg/ml solution): 3.5; Rat ED50 (SD rats; 3 mg/ml solution): 15.7 mg/kg; Rat ED50 (SD rats; 6 mg/ml solution): 12.5 mg/kg; Dissociation percent 30 s [1]: 85.4%; TI index [3]: 2.6
12 | CC(C)c1cccc(C(C)C)c1O [Propofol, 2,6-diisopropylphenol] |  |  |  |  | TI Mouse (KM mice; [8]): 4.9; TI Mouse (KM mice; [10]): 3.8; TI Rat (SD rats; 3 mg/ml solution): 5.5; TI Rat (SD rats; 6 mg/ml solution): 4.9; LD50 (in vivo [4]; 3 mg/ml solution): 38.4 mg/kg; LD50 (in vivo [4]; 6 mg/ml solution): 42.9 mg/kg; LD50 (in vivo [5]; 3 mg/ml solution): 21.5 mg/kg; LD50 (in vivo [5]; 6 mg/ml solution): 17.4 mg/kg
13 | CC(C)c1cccc(C(C)C)c1OC(=O)[C@H](F)CCN(C)C.Cl [E2, Propofol 4-(N,N-dimethyl)amino-2-(R)-fluorobutyrate hydrochloride] | 100 | 97.7 | 100 |  | Latent Period (Kunming mice; [6]): 14.6 ± 0.9 s; Persistent period (Kunming mice; [6]): 383.6 ± 242.1 s; Latent Period (Kunming mice; [7]): 14.2 ± 1.9 s; Persistent period (Kunming mice; [7]): 543 ± 231 s; TI Mouse (KM mice; [8]): 3; TI Mouse (KM mice; [9]): 4*; TI Mouse (KM mice; [10]): 3.7; TI Mouse (KM mice; [11]): 3.6*; Mouse ED50 (KM mice; [8]): 15.4 mg/kg; Mouse ED50 (KM mice; [9]): 17.9 mg/kg; Mouse ED50 (KM mice; [10]): 13.0 mg/kg; Mouse ED50 (KM mice; [11]): 15.2 mg/kg; TI Rat (SD rats; 3 mg/ml solution): 3.8; TI Rat (SD rats; 6 mg/ml solution): 3.1; Rat ED50 (SD rats; 3 mg/ml solution): 9.8 mg/kg; Rat ED50 (SD rats; 6 mg/ml solution): 10.1 mg/kg; TI index [3]: 3.5
14 | CC(C)c1cccc(C(C)C)c1OC(=O)[C@@H](CCN(C)C)C(F)(F)F.Cl [E3, propofol 4-N,N-dimethylamino-2-(R)-2-trifluoromethylbutyrate hydrochloride] | 77.5 | 51.7 | 67.2 |  | 
15 | CC(C)c1cccc(C(C)C)c1OC(=O)C(F)CCC(=O)[O-].[K+] [F2, propofol 4-carboxyl-2-(S)-fluorovalerate potassium salt] | 92.3 | 73.4 | 94.8 |  | 
16 | CC(C)c1cccc(C(C)C)c1OC(=O)[C@H](F)CCN1CCCC1.Cl [E8, propofol 4-(pyrrolidin-1-yl)-2-(R)-2-fluorobutyrate hydrochloride] | 95.6 | 91.1 | 98.2 |  | 
17 | CC(C)c1cccc(C(C)C)c1OC(=O)[C@@H](F)CCN1CC1.Cl [E7, propofol 4-(aziridin-1-yl)-2-(S)-2-fluorobutyrate hydrochloride] | 92.3 | 89.4 | 94.4 |  | 
18 | CC(C)NCC(CF)C(=O)Oc1c(C(C)C)cccc1C(C)C.CS(=O)(=O)O (racemic) [E6, propofol 3-N-isopropylamino-2-(R,S)-2-monofluoromethylpropionate methanesulfonate] | 24.2 | 27.1 | 44.3 | 40.1 | 
19 | CC(C)c1cccc(C(C)C)c1OC(=O)[C@@H](CCOP(=O)([O-])[O-])C(F)(F)F.[Li+].[Li+] [G3, {1-[4-(2,6-diisopropylphenoxy)-4-oxo-3-(R)-3-trifluoromethyl-1-butyl]} phosphate monoester dilithium salt] | 38.7 | 21.7 | 43.6 |  | 
